From patent US20040014676A1, “SRC kinase inhibitors useful for treating osteoporosis” (priority 2001, published 2004)

Target: T1, Src kinase (Homo sapiens, UniProt P12931)
T1 construct: purchased Upstate Bioteolnology (sic; Upstate Biotechnology); later HMR stock 27597-019E1 #14-117
Assay: Phosphorylation assay of Src kinase inhibitors (radiometric, 96 well filter plate)
Type: biochemical
Details: duplicates, tested in the range of 400-0.098 µM; 10 µM peptide substrate (FIYGAFKKKKNH2), 5 µM unlabeled ATP, room temperature 30 min; read-out: IC50
Method in brief: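 Radiometric filter-plate assay: Src kinase (1:100 dilution) was incubated with 10 μM peptide FIYGAFKKK-NH2, 5 μM unlabeled ATP and radiolabeled ATP for 30 min at room temperature. Reactions were stopped with 150 mM H3PO4, the peptide was captured on phosphocellulose and scintillation counted. Ki values were determined for some compounds.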

Question: For `NC(=O)CNC(=O)c1cc2ccccc2cc1OCCCCNC(=O)C1(N)Cc2ccccc2C1` [Example 40, 3-[4-[n-[1-OXO-2-(2-AMINOINDAN-2- YL)]ETHYL]-AMINOBUTOXY]- NAPHTHALENE-2-(N- ACETAMIDO)CARBOXAMIDE], which IC50 is on record?
Answer: 12 µM

Question: With `NC(=O)Cc1nc(-c2cc3ccccc3cc2OCCCCNC(=O)[C@@H](N)Cc2csc3ccccc23)no1` [Compound 156, (2S)-2-amino-3-benzo[b]thiophen-3-yl-N-(4-{3-[5-(carbamoylmethyl)(1,2,4-oxadiazol-3-yl)](2-naphthyloxy)}butyl)propanamide] as the compound, how does the IC50 read?
Answer: 20 µM

Question: `CN(C)[C@@H](Cc1ccccc1)C(=O)NCCCCOc1cc2ccccc2cc1C(=O)NCC(N)=O` [Example 68] was tested. Which IC50 did it give?
Answer: 50 µM

Question: For “3-[4-[[2(S)-AMINO-3-(4-HYDROXY- PHENYL)-1-OXOPROPYL]AMINO]- ETHOXY]-2-[N-ACETAMIDO]- NAPHTHALENECARBOXAMIDE [Example 23]”, which IC50 is on record?
Answer: 3.4 µM

Question: How did the IC50 turn out when `NC(=O)CNC(=O)c1cc2ccccc2cc1OCCCCNC(=O)[C@@H](N)Cc1cccc(F)c1` [Example 59, 3-[4-[[[2(S)-AMINO-3-(3-FLUORO- PHENYL)-1-OXO]PROPYL]AMINO]- BUTOXY]-NAPHTHALENE-2-(N- ACETAMIDO)CARBOXAMIDE] was run?
Answer: 0.49 µM

Question: With `NC(=O)CNC(=O)c1c(Cl)c(Cl)cc(Cl)c1OCCCCNC(=O)[C@@H](N)Cc1ccc(O)cc1` [Compound 136, (2S)-2-amino-N-(4-{2-[N-(carbamoylmethyl)carbamoyl]-3,4,6-trichlorophenoxy)butyl)-3-(4-hydroxyphenyl)propanamide] as the compound, how does the IC50 read?
Answer: 200 µM

Question: For `NC(=O)CNC(=O)[C@H](Cc1ccccc1)NCCCCCNC(=O)[C@H](N)Cc1csc2ccccc12` [Example 81, N-[((S)BENZYL)[(AMINO)(CARBONYL)- (METHYL)(AMINO)(CARBONYL)]- METHYL]-5-[[N-[1-OXO-2-AMINO-3- (R)(BENZOTHIOPHEN-3- YL)]PROPYL]AMINO]PENTYLAMINE], which IC50 is on record?
Answer: 6 µM

Question: Which IC50 does the source give for `N=C(N)N[C@@H](Cc1ccc(O)cc1)C(=O)NCCCCOc1cc2ccccc2cc1C(=O)NCC(N)=O` [Example 73, 3-[4-[[[(1-OXO-2-[(N-AMINOIMINO- METHYL)(S)AMINO]-3-(4-HYDROXY- PHENYL)]PROPYL]AMINO]BUTOXY]- NAPHTHALENE-2-(N-ACETAMIDO)- CARBOXAMIDE] here?
Answer: 6 µM

Question: Which IC50 does the source give for `NC(=O)CNC(=O)c1cc2ccccc2cc1OCCCCCCNC(=O)[C@@H](N)Cc1ccc(O)cc1` [Example 95, 3-[6-[[[1-OXO-2(S)-AMINO-3-(4- HYDROXYPHENYL)]PROPYL]AMINO]- HEXOXY]NAPHTHALENE-2-(N- ACETAMIDO)CARBOXAMIDE] here?
Answer: 7.1 µM

Question: How did the IC50 turn out when `NC(=O)CNC(=O)c1cc2ccccc2cc1OCCCCNC(=O)[C@@H](N)Cc1ccc(-c2ccccc2)cc1` [Example 38, 3-[[4-[[2(S)-AMINO-3-(BIPHEN-1-YL)-1- OXO]PROPYL]AMINO]BUTOXY]- NAPHTHALENE-2-(N- ACETAMIDO)CARBOXAMIDE] was run?
Answer: 30 µM

Question: With `NC(=O)C(CCC(=O)O)NC(=O)c1cc2ccccc2cc1OCCCCNC(=O)[C@@H](N)Cc1ccc(O)cc1` (stereo partly drawn) [Example 12, 3-[4-[[2(S)-AMINO-3-(4-HYDROXY- PHENYL)-1-OXOPROPYL]AMINO]- BUTOXY]-NAPHTHALENE-2-[N- [(AMIDO)(2-CARBOXYEHTYL)- METHYL]]CARBOXAMIDE] as the compound, how does the IC50 read?
Answer: 308 µM

Question: `CNC(=O)[C@@H](Cc1cccc(C(=O)OC)c1)C(=O)NCCCCOc1cc2ccccc2cc1C(=O)NCC(N)=O` [Example 148, 3-[[4-[N-[1-OXO-2-(N-METHYLAMINO- CARBONYL)-3-[(3-(METHOXY- CARBONYL)PHENYL]]PROPYL]- AMINO]BUTOXY]-NAPHTHALENE-2- (N-ACETAMIDO)CARBOXAMIDE] was tested. Which IC50 did it give?
Answer: 203 µM

Question: How did the IC50 turn out when `NC(=O)CNC(=O)c1cc2ccccc2cc1OCCCCN1CCNC(Cc2ccccc2)C1=O` (stereo in doubt) [Example 28, 3-[4-[(2-OXO-3(S)-BENZYL)-PIPERAZIN- 1-YL]BUTOXY]-NAPHTHALENE-2-(N- ACETAMIDO)CARBOXAMIDE] was run?
Answer: 27 µM
